# Target: T1, serotonin 1A receptor (Mus musculus, UniProt Q64264)
# T1 construct: into the rectum of CD-1 (ICR) male mice (25-45 g); from tissue; host or cells: living CD-1 (ICR) male mice (whole animal)
# T1 sequence (Q64264 1-421): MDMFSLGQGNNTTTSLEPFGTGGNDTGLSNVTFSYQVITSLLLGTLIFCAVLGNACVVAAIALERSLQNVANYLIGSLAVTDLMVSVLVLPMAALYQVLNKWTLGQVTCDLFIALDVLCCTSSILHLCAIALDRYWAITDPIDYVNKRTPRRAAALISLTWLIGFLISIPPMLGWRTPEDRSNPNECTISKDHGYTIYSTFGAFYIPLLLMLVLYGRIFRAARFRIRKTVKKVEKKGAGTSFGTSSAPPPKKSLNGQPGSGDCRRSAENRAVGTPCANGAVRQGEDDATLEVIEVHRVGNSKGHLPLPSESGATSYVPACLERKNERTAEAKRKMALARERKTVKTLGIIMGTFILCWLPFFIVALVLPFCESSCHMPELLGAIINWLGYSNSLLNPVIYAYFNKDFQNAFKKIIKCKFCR
# Assay: Antagonistic effect on serotonin 1A receptor agonist-induced hypothermia in mouse
# Type: in vivo
# Conditions: sc
# Experimental: (1) A thermistor probe was inserted at a depth of approximately 2 cm into the rectum of CD-1 (ICR) male mice (25-45 g), so as to measure the body temperature thereof. Body temperature is decreased by subcutaneous administration of serotonin 1A receptor agonist (8-hydroxy-dipropylaminotetralin) 0.5 mg/kg. Since a serotonin 1A antagonist inhibits such action, the antagonistic effect of a test substance to a serotonin 1A receptor was evaluated using the inhibitory effect of the hypothermia as an index. A test substance was administered 15 minutes before the administration of the serotonin 1A agonist. A serotonin 1A partial agonist alone decreases the body temperature, depending on the degree of the agonistic action thereof. In addition, it has a weak antagonistic effect on 8-hydroxy-dipropylaminotetralin-induced hypothermia. (2) Results
row,Structure (SMILES),ED50
1,"COc1cc2cccnc2cc1CCN1CCC(n2ccc3ccc(C(N)=O)cc32)CC1 [Compound 51, 1-{1-[2-(6-methoxyquinolin-7-yl)ethyl]piperidin-4-yl}-1H-indole-6-carboxamide]",0.66 mg/kg
2,"COc1ccc2c(C)noc2c1CCN1CCC(n2ccc3ccc(C(N)=O)cc32)CC1 [Compound 1, 1-{1-[2-(6-methoxy-3-methylbenz[d]isoxazol-7-yl)ethyl]piperidin-4-yl}-1H-indole-6-carboxamide]",0.3 mg/kg
3,"CNC(=O)c1ccc2ccn(C3CCN(CCc4c(OC)ccc5c4OC(C)(C)CC5O)CC3)c2c1 (stereo not drawn) [Compound 48, 1-{1-[2-(4-hydroxy-7-methoxy-2,2-dimethylchroman-8-yl)ethyl]piperidin-4-yl}-N-methyl-1H-indole-6-carboxamide]",0.06 mg/kg

# Same assay, conditions: sc, 15 minutes before 8-hydroxy-dipropylaminotetralin 0.5 mg/kg sc, inhibition of hypothermia, CD-1 (ICR) male mice, read-out: ED50
row,Structure (SMILES),ED50
1,"COc1ccc2oc(C)nc2c1CCN1CCC(n2ccc3ccc(C(N)=O)cc32)CC1 [Compound 7, 1-{1-[2-(5-methoxy-2-methylbenzoxazol-4-yl)ethyl]piperidin-4-yl}-1H-indole-6-carboxamide]",0.38 mg/kg
2,"COc1cc2ccccc2cc1CCN1CCC(n2ccc3ccc(C(N)=O)cc32)CC1 [Compound 45, 1-{1-[2-(3-methoxynaphthalen-2-yl)ethyl]piperidin-4-yl}-1H-indole-6-carboxamide]",0.26 mg/kg
3,"COc1ccc2sc(C)nc2c1CCN1CCC(n2ccc3ccc(C(N)=O)cc32)CC1 [Compound 27, 1-{1-[2-(5-methoxy-2-methylbenzothiazol-4-yl)ethyl]piperidin-4-yl}-1H-indole-6-carboxamide]",0.42 mg/kg
4,"COc1ccc2nc(C)oc2c1CCN1CCC(n2ccc3ccc(C(N)=O)cc32)CC1 [Compound 3, 1-{1-[2-(6-methoxy-2-methylbenzoxazol-7-yl)ethyl]piperidin-4-yl}-1H-indole-6-carboxamide]",0.18 mg/kg
5,"CCN1C(=O)CCc2cc(OC)c(CCN3CCC(n4ccc5ccc(C(N)=O)cc54)CC3)cc21 [Compound 59, 1-{1-[2-(1-ethyl-6-methoxy-2-oxo-1,2,3,4-tetrahydroquinolin-7-yl)ethyl]piperidin-4-yl}-1H-indole-6-carboxamide]",0.3 mg/kg
6,"COc1ccc2c(c1CCN1CCC(n3ccc4ccc(C(N)=O)cc43)CC1)OCCC2=O [Compound 47, 1-{1-[2-(7-methoxy-4-oxochroman-8-yl)ethyl]piperidin-4-yl}-1H-indole-6-carboxamide]",0.21 mg/kg
7,"COc1cc2oc(C)nc2cc1CCN1CCC(n2ccc3ccc(C(N)=O)cc32)CC1 [Compound 4, 1-{1-[2-(6-methoxy-2-methylbenzoxazol-5-yl)ethyl]piperidin-4-yl}-1H-indole-6-carboxamide]",0.1 mg/kg
8,"COc1cc2c(cc1CCN1CCC(n3ccc4ccc(C(N)=O)cc43)CC1)C(=O)CC2 [Compound 26, 1-{1-[2-(6-methoxy-3-oxoindan-5-yl)ethyl]piperidin-4-yl}-1H-indole-6-carboxamide]",0.25 mg/kg
9,"COc1cc2nc(C)sc2cc1CCN1CCC(n2ccc3ccc(C(N)=O)cc32)CC1 [Compound 28, 1-{1-[2-(5-methoxy-2-methylbenzothiazol-6-yl)ethyl]piperidin-4-yl}-1H-indole-6-carboxamide]",0.02 mg/kg
10,"COc1cc2c(cc1CCN1CCC(n3ccc4ccc(C(N)=O)cc43)CC1)N(C)C(=O)CC2 [Compound 57, 1-{1-[2-(6-methoxy-1-methyl-2-oxo-1,2,3,4-tetrahydroquinolin-7-yl)ethyl]piperdin-4-yl}-1H-indole-6-carboxamide]",0.1 mg/kg
11,"COc1ccc2c(c1CCN1CCC(n3ccc4ccc(C(N)=O)cc43)CC1)CCC2O (stereo not drawn) [Compound 49, 1-{1-[2-(1-hydroxy-5-methoxyindan-4-yl)ethyl]piperidin-4-yl}-1H-indole-6-carboxamide]",0.28 mg/kg
12,"COc1cc2c(cc1CCN1CCC(n3ccc4ccc(C(N)=O)cc43)CC1)N(C)CCC2 [Compound 53, 1-{1-[2-(6-methoxy-1-methyl-1,2,3,4-tetrahydroquinolin-7-yl)ethyl]piperidin-4-yl}-1H-indole-6-carboxamide]",0.3 mg/kg
13,"COc1ccc2ncccc2c1CCN1CCC(n2ccc3ccc(C(N)=O)cc32)CC1 [Compound 30, 1-{1-[2-(6-methoxyquinolin-5-yl)ethyl]piperidin-4-yl}-1H-indole-6-carboxamide]",0.62 mg/kg
14,"COc1cc2c(cc1CCN1CCC(n3ccc4ccc(C(N)=O)cc43)CC1)C(=O)CC(C)(C)O2 [Compound 24, 1-{1-[2-(7-methoxy-2,2-dimethyl-4-oxochroman-6-yl)ethyl]piperidin-4-yl}-1H-indole-6-carboxamide]",0.3 mg/kg
15,"COc1cc2c(cc1CCN1CCC(n3ccc4ccc(C(N)=O)cc43)CC1)C(=O)N(C)CCO2 [Compound 9, 1-{1-[2-(8-methoxy-4-methyl-5-oxo-2,3,4,5-tetrahydrobenzo[f][1,4]oxazepin-7-yl)ethyl]piperidin-4-yl}-1H-indole-6-carboxamide]",0.3 mg/kg
16,"COc1cc2c(cc1CCN1CCC(n3ccc4ccc(C(N)=O)cc43)CC1)C(=O)N(C)CC2 [Compound 33, 1-{1-[2-(6-methoxy-2-methyl-1-oxo-1,2,3,4-tetrahydroisoquinolin-7-yl)ethyl]piperidin-4-yl}-1H-indole-6-carboxamide]",0.12 mg/kg
17,CCc1nc2ccc(OC)c(CCN3CCC(n4ccc5ccc(C(N)=O)cc54)CC3)c2o1 [Compound 5],0.24 mg/kg
18,"COc1ccc2c(=O)c(C)c(C)oc2c1CCN1CCC(n2ccc3ccc(C(N)=O)cc32)CC1 [Compound 36, 1-{1-[2-(7-methoxy-2,3-dimethyl-4-oxo-4H-chromen-8-yl)ethyl]piperidin-4-yl}-1H-indole-6-carboxamide]",0.2 mg/kg
19,"COc1ccc2c(c1CCN1CCC(n3ccc4ccc(C(N)=O)cc43)CC1)OC(C)(C)CC2=O [Compound 22, 1-{1-[2-(7-methoxy-2,2-dimethyl-4-oxochroman-8-yl)ethyl]piperidin-4-yl}-1H-indole-6-carboxamide]",0.1 mg/kg
20,"COc1cc2c(cc1CCN1CCC(n3ccc4ccc(C(N)=O)cc43)CC1)OCCO2 [Compound 31, 1-{1-[2-(7-methoxy-2,3-dihydrobenz[1,4]dioxin-6-yl)ethyl]piperidin-4-yl}-1H-indole-6-carboxamide]",0.04 mg/kg
21,"COc1cc2c(cc1CCN1CCC(n3ccc4ccc(C(N)=O)cc43)CC1)N(C(C)=O)CCC2 [Compound 52, 1-{1-[2-(1-acetyl-6-methoxy-1,2,3,4-tetrahydroquinolin-7-yl)ethyl]piperidin-4-yl}-1H-indole-6-carboxamide]",0.5 mg/kg
22,"CCc1nc2cc(CCN3CCC(n4ccc5ccc(C(N)=O)cc54)CC3)c(OC)cc2o1 [Compound 6, 1-{1-[2-(2-ethyl-6-methoxybenzoxazol-5-yl)ethyl]piperidin-4-yl}-1H-indole-6-carboxamide]",0.35 mg/kg
23,"COc1ccc2c(c1CCN1CCC(n3ccc4ccc(C(N)=O)cc43)CC1)CCCN2C(C)=O [Compound 54, 1-{1-[2-(1-acetyl-6-methoxy-1,2,3,4-tetrahydroquinolin-5-yl)ethyl]piperidin-4-yl}-1H-indole-6-carboxamide]",0.84 mg/kg
24,"COc1cc2onc(C)c2cc1CCN1CCC(n2ccc3ccc(C(N)=O)cc32)CC1 [Compound 2, 1-{1-[2-(6-methoxy-3-methylbenzo[d]isoxazol-5-yl)ethyl]piperidin-4-yl}-1H-indole-6-carboxamide]",0.4 mg/kg
25,"COc1cc2nc(C)oc2cc1CCN1CCC(n2ccc3ccc(C(N)=O)cc32)CC1 [Compound 8, 1-{1-[2-(5-methoxy-2-methylbenzoxazol-6-yl)ethyl]piperidin-4-yl}-1H-indole-6-carboxamide]",0.07 mg/kg
26,"COc1ccc2c(c1CCN1CCC(n3ccc4ccc(C(N)=O)cc43)CC1)CCC2=O [Compound 25, 1-{1-[2-(5-methoxy-1-oxoindan-4-yl)ethyl]piperidin-4-yl}-1H-indole-6-carboxamide]",0.1 mg/kg
27,"CNC(=O)c1ccc2ccn(C3CCN(CCc4cc5c(cc4OC)CCC(=O)N5C)CC3)c2c1 [Compound 58, 1-{1-[2-(6-methoxy-1-methyl-2-oxo-1,2,3,4-tetrahydroquinolin-7-yl)ethyl]piperidin-4-yl}-N-methyl-1H-indole-6-carboxamide]",0.53 mg/kg
28,"CNC(=O)c1ccc2ccn(C3CCN(CCc4c(OC)ccc5c4OC(C)(C)CC5=O)CC3)c2c1 [Compound 20, 1-{1-[2-(7-methoxy-2,2-dimethyl-4-oxochroman-8-yl)ethyl]piperidin-4-yl}-N-methyl-1H-indole-6-carboxamide]",0.03 mg/kg
29,"COc1ccc2ccccc2c1CCN1CCC(n2ccc3ccc(C(N)=O)cc32)CC1 [Compound 44, 1-{1-[2-(2-methoxynaphthalen-1-yl)ethyl]piperidin-4-yl}-1H-indole-6-carboxamide]",0.41 mg/kg
30,"CNC(=O)c1ccc2ccn(C3CCN(CCc4cc5c(cc4OC)CCN(C)C5=O)CC3)c2c1 [Compound 38, 1-{1-[2-(6-methoxy-2-methyl-1-oxo-1,2,3,4-tetrahydroisoquinolin-7-yl)ethyl]piperidin-4-yl}-N-methyl-1H-indole-6-carboxamide]",0.19 mg/kg
